The test system of test [1] is HeLa. Briefly: HeLa cell cytotoxicity, dose response, cytotoxicity control for MITF activator project, CellTiter-Glo luminescence, cherry-pick samples (AID 540259). It is filed as functional, cell-based. Particulars: Homo sapiens.
A short description of test [2]: cells. Format: functional.
Test [3] in a line: cells. It is filed as functional, cell-based.
Test [4] has as its target T1, Trace amine-associated receptor 1 (Homo sapiens, UniProt Q96RJ0).
T1 sequence (Q96RJ0 whole entry): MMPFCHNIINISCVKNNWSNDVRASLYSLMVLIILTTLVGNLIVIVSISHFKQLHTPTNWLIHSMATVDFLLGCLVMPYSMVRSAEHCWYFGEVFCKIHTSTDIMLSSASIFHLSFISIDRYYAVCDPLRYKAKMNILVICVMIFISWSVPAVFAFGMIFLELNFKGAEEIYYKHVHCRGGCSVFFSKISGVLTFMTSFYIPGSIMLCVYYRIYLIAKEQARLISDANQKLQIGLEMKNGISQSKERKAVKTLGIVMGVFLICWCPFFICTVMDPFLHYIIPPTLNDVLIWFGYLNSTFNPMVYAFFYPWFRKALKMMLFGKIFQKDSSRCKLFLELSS
The experiment in a line: Counterscreen for agonists of the human trace amine associated receptor 1 (hTAAR1): Fluorescence-based cell-based high throughput dose response assay to identify hTAAR1 agonist that also desensitize TAAR1 receptor response. It is filed as functional.

Test [5] concerns the target T1, Trace amine-associated receptor 1. Briefly: Fluorescence-based cell-based high throughput dose response assay to identify agonists of the human trace amine associated receptor 1 (TAAR1). It is filed as functional.
Test [6] is described as follows: cells. Format: functional, cell-based. This is another data set of the same source.
The target in test [7] is T2, Carboxy-terminal domain RNA polymerase II polypeptide A small phosphatase 1 (Homo sapiens, UniProt Q9GZU7).
T2 sequence (Q9GZU7 whole entry): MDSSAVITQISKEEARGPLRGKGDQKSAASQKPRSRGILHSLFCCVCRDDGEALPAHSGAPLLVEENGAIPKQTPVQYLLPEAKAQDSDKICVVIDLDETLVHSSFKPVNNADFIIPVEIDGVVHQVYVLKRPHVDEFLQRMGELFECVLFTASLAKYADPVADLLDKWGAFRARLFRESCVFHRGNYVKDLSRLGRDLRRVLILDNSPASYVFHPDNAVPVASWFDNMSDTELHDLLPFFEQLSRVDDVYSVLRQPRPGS
Briefly: inhibitors of CTDSP1, concentration-response testing, biochemical assay, absorbance-based, actives from ultra-high-throughput screening (AID 540297). Format: functional.

Test [8] can be described thus: ADAM10 protease inhibitors, dose response, selectivity assay for ADAM17 exosite inhibitor project, biochemical, FRET peptide substrate, recombinant human ADAM10 (AID 743259).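 Further: ADAM10 enzyme cleaving a FRET peptide substrate.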
Test [9] concerns the target Disintegrin and metalloproteinase domain-containing protein 17 (Homo sapiens, UniProt P78536). Briefly: exosite inhibitors of ADAM17, dose response, biochemical (AID 743260).
Test [10] deals with T3, Histone-lysine N-methyltransferase NSD2 (Homo sapiens, UniProt O96028).
T3 sequence (O96028 whole entry): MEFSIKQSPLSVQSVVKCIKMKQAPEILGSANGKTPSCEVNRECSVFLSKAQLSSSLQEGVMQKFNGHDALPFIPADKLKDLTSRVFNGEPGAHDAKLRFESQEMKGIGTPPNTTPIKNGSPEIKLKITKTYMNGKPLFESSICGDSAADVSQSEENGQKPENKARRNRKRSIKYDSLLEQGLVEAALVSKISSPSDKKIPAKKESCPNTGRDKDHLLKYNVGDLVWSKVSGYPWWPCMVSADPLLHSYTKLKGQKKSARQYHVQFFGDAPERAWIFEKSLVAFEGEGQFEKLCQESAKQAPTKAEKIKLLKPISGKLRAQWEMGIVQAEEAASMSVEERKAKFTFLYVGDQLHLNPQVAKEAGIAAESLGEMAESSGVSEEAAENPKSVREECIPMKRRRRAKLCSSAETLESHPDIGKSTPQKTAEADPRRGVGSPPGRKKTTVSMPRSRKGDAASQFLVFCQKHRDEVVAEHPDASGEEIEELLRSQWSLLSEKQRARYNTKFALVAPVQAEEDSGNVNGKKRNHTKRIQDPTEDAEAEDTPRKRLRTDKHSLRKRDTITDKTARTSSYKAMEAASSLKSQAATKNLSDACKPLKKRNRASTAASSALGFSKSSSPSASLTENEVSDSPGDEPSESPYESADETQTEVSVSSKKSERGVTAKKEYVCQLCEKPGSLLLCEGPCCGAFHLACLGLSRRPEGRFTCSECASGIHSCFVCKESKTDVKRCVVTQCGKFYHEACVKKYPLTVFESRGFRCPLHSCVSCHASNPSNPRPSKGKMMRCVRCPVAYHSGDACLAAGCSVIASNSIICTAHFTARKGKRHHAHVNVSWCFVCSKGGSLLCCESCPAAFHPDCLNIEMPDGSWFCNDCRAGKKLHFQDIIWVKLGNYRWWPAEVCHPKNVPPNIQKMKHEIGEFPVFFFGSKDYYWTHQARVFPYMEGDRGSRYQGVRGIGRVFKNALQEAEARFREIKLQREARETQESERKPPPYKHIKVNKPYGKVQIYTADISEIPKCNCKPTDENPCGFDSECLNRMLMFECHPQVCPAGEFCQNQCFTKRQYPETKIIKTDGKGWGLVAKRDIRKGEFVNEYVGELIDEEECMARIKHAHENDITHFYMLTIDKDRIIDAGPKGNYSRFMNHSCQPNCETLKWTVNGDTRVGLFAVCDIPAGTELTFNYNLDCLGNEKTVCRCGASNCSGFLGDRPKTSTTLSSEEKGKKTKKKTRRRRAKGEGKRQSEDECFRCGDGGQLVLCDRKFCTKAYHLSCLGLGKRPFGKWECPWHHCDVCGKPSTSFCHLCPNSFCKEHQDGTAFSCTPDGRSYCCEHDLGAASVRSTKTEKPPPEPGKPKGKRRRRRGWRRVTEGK
Format: biochemical.

Test [11] concerns the target T4, High affinity choline transporter 1 (Homo sapiens, UniProt Q9GZV3).
T4 sequence (Q9GZV3 whole entry): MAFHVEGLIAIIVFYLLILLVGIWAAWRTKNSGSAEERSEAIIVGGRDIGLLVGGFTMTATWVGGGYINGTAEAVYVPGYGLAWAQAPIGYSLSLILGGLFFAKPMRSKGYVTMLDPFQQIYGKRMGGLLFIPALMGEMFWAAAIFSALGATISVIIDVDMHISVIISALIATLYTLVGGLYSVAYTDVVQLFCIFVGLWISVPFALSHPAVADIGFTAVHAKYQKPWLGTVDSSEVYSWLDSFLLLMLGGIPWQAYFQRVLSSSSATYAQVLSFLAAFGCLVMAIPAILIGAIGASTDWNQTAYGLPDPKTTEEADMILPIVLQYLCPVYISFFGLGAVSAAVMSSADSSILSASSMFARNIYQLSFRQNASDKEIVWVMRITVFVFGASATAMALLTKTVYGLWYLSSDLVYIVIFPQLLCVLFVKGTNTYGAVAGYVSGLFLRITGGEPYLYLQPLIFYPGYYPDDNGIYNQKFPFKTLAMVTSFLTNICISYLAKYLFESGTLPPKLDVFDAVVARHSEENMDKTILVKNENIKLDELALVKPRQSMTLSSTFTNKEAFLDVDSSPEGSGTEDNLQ
Briefly: CHT inhibitors, dose response, cell-based, 5-point CRC, membrane potential dye (AID 504840). Format: functional.

Test [12] has as its target T5, Fatty acid synthase (Homo sapiens, UniProt P49327). The experiment in a line: FAS thioesterase domain inhibitors, dose response, biochemical, kinetic fluorescence intensity (AID 624326).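 Further: rate of fluorescence rise from hydrolysis of a fluorogenic O-methyl fluorescein ester substrate.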 Format: functional.
Test [13] deals with T5, Fatty acid synthase. The experiment in a line: FAS thioesterase domain inhibitors, dose response, biochemical, endpoint fluorescence intensity, uHTS hits (AID 624327).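 Further: fluorescence from hydrolysis of an O-methyl fluorescein acyl ester substrate by the enzyme.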 Format: functional.
The target of test [14] is T6, DNA repair protein RAD52 homolog (Homo sapiens, UniProt P43351).
T6 sequence (P43351 whole entry): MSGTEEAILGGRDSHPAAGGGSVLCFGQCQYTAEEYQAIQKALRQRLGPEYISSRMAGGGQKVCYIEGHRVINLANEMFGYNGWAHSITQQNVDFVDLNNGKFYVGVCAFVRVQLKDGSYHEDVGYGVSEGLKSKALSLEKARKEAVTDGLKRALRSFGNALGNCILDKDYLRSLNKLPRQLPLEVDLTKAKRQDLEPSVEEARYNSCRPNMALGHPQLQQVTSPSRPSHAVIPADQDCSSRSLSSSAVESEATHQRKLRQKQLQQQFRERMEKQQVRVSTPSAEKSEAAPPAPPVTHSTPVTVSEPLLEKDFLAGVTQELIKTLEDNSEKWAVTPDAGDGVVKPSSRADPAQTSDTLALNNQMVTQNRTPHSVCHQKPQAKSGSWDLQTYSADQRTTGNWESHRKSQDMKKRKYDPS
It is filed as functional, biochemical.

The target in test [15] is T7, Rac GTPase-activating protein 1 (Homo sapiens, UniProt Q9H0H5).
T7 sequence (Q9H0H5 whole entry): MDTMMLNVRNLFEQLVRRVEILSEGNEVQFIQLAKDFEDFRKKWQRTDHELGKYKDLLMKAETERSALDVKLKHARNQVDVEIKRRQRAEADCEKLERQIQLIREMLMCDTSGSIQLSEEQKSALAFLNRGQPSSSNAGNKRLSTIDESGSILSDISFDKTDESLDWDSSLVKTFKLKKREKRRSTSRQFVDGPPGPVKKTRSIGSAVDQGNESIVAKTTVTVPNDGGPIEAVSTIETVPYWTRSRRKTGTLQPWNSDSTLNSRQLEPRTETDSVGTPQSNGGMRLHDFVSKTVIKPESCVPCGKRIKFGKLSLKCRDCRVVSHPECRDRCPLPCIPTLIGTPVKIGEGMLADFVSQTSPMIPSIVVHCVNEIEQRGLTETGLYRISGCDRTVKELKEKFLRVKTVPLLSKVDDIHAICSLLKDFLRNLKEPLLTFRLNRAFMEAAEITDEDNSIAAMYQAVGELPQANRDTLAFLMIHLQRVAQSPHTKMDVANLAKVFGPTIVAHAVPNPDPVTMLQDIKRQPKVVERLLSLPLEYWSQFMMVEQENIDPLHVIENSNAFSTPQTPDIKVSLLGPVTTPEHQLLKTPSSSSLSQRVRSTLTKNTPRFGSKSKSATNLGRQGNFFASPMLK
The experiment in a line: MgcRacGAP GTPase-activating activity inhibitors, confirmation, biochemical, ADP Hunter fluorescence, primary and confirmatory (AID 624330). It is filed as functional.

The subject of test [16] is SN12K1. Briefly: cells. It is filed as functional. Particulars: Homo sapiens.
Test [17] concerns P388. The experiment in a line: cells. It is filed as functional. The note with it: Mus musculus.
Test [18] concerns the target Nonstructural protein 1 (Influenza A virus, UniProt Q194T2). Format: functional, Influenza A virus (A/California/07/2009(H1N1)).
In test [19] the test system is P388/ADR. Briefly: cells. It is filed as functional. Particulars: Mus musculus.

The source made the active and inactive calls. Some results are limits rather than exact numbers.

Sequence of Disintegrin and metalloproteinase domain-containing protein 17 (P78536 whole entry, the tested form may be a part): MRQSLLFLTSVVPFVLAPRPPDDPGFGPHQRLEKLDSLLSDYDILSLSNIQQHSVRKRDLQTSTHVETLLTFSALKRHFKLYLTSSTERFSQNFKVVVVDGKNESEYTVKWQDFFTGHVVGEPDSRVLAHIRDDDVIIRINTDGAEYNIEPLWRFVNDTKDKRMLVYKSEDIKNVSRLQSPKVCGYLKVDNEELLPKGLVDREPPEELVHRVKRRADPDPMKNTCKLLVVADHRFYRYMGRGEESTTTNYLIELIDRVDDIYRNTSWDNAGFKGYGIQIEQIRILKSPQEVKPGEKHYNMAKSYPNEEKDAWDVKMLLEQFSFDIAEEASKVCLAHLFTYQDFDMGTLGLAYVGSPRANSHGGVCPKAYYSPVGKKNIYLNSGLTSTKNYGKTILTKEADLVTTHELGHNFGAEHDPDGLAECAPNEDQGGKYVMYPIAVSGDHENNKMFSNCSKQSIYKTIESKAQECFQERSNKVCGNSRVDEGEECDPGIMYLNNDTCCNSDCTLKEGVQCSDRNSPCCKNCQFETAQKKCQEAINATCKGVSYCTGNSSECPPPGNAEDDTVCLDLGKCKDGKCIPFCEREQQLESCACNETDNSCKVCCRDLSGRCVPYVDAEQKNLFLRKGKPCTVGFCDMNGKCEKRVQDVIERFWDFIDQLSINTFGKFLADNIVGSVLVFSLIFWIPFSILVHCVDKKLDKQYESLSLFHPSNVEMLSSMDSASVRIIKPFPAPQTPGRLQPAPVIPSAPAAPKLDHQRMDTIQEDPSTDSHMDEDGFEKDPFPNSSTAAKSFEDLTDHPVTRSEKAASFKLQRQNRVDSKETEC
T5 sequence (P49327 whole entry, the tested form may be a part): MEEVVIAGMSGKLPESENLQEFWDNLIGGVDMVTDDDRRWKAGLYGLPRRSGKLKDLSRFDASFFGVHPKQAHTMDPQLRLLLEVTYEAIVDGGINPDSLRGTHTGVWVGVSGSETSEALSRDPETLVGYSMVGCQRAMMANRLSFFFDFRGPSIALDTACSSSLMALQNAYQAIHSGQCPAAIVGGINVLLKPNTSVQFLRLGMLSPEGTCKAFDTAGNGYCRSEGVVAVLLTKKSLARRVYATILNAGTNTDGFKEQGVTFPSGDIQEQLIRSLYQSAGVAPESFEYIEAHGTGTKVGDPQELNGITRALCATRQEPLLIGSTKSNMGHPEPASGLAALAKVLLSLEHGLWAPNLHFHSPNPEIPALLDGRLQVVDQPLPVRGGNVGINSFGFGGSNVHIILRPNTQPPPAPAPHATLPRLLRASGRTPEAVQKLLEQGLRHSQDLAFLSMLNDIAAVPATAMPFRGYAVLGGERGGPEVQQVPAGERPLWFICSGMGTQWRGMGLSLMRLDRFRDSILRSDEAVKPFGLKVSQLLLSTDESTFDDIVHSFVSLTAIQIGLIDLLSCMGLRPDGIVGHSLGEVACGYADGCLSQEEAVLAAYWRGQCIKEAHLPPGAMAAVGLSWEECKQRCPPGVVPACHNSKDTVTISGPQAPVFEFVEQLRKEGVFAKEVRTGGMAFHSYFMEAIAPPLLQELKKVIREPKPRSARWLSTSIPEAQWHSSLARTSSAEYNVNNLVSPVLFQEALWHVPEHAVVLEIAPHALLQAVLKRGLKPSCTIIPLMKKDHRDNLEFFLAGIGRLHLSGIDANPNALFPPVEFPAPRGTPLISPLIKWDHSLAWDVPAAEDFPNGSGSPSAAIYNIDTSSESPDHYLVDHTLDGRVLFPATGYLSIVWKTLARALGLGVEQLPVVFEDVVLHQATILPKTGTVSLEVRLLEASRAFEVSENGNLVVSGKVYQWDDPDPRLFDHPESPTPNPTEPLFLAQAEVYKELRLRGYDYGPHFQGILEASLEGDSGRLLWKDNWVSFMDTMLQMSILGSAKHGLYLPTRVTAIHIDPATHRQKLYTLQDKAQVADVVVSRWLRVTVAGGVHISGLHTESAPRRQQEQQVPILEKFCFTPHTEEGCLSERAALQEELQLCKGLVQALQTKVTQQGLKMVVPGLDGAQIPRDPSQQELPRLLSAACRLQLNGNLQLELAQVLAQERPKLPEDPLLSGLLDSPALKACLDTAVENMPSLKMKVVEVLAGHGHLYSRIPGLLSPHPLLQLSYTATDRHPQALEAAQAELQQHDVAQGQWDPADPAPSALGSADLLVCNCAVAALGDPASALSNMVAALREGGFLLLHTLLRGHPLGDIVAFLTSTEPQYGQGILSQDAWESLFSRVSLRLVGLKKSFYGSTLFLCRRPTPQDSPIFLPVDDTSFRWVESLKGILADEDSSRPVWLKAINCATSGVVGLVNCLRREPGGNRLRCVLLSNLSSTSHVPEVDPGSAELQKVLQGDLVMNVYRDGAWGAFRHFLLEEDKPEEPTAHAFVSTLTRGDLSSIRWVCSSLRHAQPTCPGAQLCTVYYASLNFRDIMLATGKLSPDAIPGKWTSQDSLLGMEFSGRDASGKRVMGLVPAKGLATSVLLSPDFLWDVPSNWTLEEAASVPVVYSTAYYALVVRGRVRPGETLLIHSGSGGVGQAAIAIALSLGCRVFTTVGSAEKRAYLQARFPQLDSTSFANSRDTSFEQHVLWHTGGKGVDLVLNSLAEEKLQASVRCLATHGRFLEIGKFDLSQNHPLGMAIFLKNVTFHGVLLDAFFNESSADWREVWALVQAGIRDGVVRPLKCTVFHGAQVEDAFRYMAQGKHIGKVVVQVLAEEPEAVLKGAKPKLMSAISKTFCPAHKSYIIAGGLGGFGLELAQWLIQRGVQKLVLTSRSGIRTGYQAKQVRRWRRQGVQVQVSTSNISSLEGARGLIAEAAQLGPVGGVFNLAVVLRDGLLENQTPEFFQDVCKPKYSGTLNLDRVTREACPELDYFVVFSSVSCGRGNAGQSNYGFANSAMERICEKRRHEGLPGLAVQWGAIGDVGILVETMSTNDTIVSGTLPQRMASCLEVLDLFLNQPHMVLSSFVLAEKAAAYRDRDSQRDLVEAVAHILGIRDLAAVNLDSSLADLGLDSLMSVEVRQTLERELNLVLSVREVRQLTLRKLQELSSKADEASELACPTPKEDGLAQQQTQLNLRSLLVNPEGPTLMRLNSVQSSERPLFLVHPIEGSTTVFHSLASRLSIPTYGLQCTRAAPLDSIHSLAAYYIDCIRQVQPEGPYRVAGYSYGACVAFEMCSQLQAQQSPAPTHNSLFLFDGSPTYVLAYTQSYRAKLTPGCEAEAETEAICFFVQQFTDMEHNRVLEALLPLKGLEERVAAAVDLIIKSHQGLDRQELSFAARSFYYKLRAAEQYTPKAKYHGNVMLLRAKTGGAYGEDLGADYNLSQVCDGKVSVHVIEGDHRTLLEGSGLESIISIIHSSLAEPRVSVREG
Sequence of Nonstructural protein 1 (Q194T2 whole entry): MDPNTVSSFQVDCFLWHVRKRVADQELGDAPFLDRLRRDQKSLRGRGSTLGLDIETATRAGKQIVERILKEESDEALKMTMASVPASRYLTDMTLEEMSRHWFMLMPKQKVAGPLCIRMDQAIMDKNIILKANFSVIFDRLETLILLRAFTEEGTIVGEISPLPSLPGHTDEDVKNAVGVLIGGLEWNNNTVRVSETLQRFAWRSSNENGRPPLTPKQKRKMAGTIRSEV

For `Cc1ccc(NCCC(=O)c2cccs2)cc1C`, the AC50 in [1] was > 350 µM (inactive). For the same compound, the IC50 in test [2] is 20.7 µM (active).

`NS(=O)(=O)c1ccc(CCNC(=O)CNCCc2ccccc2)cc1`: the EC50 in [3] is > 29.9 µM (inactive); in test [5], 1.07 µM (active). Besides, the figures for the IC50 in [4] and in test [6] were 3.56 µM (active) and > 29.9 µM (inactive), respectively.

Take `CN(C(=O)c1cc(-c2ccccc2)on1)C1CCCCC1`: the AC50 in [1] is > 350 µM (inactive).

As for `COc1ccccc1OCCn1c(SCC(=O)O)nc2ccccc21`, the 50% inhibitory concentration (IC50) in [7] is 6.47 µM (active).

With `Cn1nc(-c2ccc(C(=O)Nc3ccc(F)cc3)cc2)c2ccccc2c1=O`, the IC50 in test [7] is 10.4 µM (active).

For the compound `CCOC(=O)C(NCCc1ccccc1)(NC(=O)CC)C(F)(F)F` (stereo not drawn), the EC50 in test [3] was > 29.9 µM (inactive); in [5] it was 1.81 µM (active). Also, the IC50 was 8.43 µM (active) in test [4] and > 29.9 µM (inactive) in test [6].

As for `Cc1cc(N(C)C)nc(Nc2ccccc2)n1`, the figures for the EC50 in test [3] and in test [5] were > 29.9 µM (inactive) and 0.128 µM (active), respectively. The IC50 is 0.273 µM (active) in test [4] and > 29.9 µM (inactive) in test [6].

As to `CCCCC[C@@H](C)N1C[C@@H](COCc2ccccc2)Oc2cc(N3CCC[C@H]3CO)ccc2S1(=O)=O`, the figures for the IC50 in test [8] and in test [9] were 9.07 µM (active) and > 69.5 µM (inactive), respectively.

For the compound `COc1cccc(C(=O)N[C@H](C(=O)N2CCC[C@H]2C(=O)NCCc2ccccc2Cl)C2CCCCC2)c1`, the EC50 is > 29.9 µM (inactive) in test [3] and 6.72 µM (active) in test [5]. Also, the results for the IC50 in test [4] and in test [6] were 6.66 µM (active) and > 29.9 µM (inactive), respectively.

`Cc1ccc(-n2[nH]c(C)c(/C=N/Nc3ccc([N+](=O)[O-])cc3[N+](=O)[O-])c2=O)cc1C`: the IC50 in test [7] was 3.32 µM (active); in [11], 10.5 µM (active); in test [12] it was 32.9 µM (inactive); in [13] it was 53.5 µM (inactive). Also, the AC50 in test [10] was 14 µM (active).

On to `CCN1CCN(c2ccc(/N=C/c3ccccc3O)cc2)CC1`, for which, in [14], the AC50 was 2.23 µM (active). Besides, the IC50 in test [15] is 20.8 µM (active).

Take `NS(=O)(=O)c1ccc(N/N=C/C=C/c2ccccc2[N+](=O)[O-])cc1`: the IC50 was 13.7 µM (inactive) in test [8] and > 69.5 µM (inactive) in test [9].

For the compound `COc1cc2c(ccc3c4cc(OC)c(OC)cc4c[n+](C)c23)cc1O` [FAGARONINE], the AC50 in [14] is < 0.244 µM (active). For the same compound, the GI50 in [16] is 1.95 µM (inactive); in test [17] it was 0.489 µM (active); in test [19], 66.5 µM (inactive). Further, the IC50 is > 100 µM (active) in [18] and 42.5 µM (active) in [15].
